tested on: NL-RLuc virus; assay: Inhibition of HIV Replication (NL-RLuc luciferase reporter virus in MT-2 cells); format: cell-based; details: Human immunodeficiency virus 1, MT2, 120 h
Description: Inhibition of HIV Replication:
A recombinant NL-RLuc proviral clone was constructed in which a section of the nef gene from NL4-3 was replaced with the Renilla Luciferase gene. This virus is fully infectious and can undergo multiple cycles of replication in cell culture. In addition, the luciferous reporter provides a simple and easy method for quantitating the extent of virus growth and consequently, the antiviral activity of test compounds. The plasmid pNLRLuc contains the proviral NL-Rluc DNA cloned into pUC18 at the PvuII site. The NL-RLuc virus was prepared by transfection of 293T cells with the plasmid pNLRLuc. Transfections were performed using the LipofectAMINE PLUS kit from Invitrogen (Carlsbad, Calif.) according to the manufacturer and the virus generated was titered in MT-2 cells. For susceptibility analyses, the titrated virus was used to infect MT-2 cells in the presence of compound, and after 5 days of incubation, cells were processed and quantitated for virus growth by the amount of expressed luciferase. Assay media was RPMI 1640 supplemented with 10% heat inactivated fetal bovine serum (FBS), 100 units/ml penicillin G/100 units/ml streptomycin, 10 mM HEPES buffer pH 7.55 and 2 mM L-glutamine. The results from at least 2 experiments were used to calculate the EC50 values. Luciferase was quantitated using the Dual Luciferase kit from Promega (Madison, Wis.). Susceptibility of viruses to compounds was determined by incubation in the presence of serial dilutions of the compound. The 50% effective concentration (EC50) was calculated by using the exponential form of the median effect equation where (Fa)=1/[1+(ED50/drug conc.)^m] (Johnson V A, Byington R T. Infectivity Assay. In Techniques in HIV Research. ed. Aldovini A, Walker B D. 71-76. New York: Stockton Press. 1990).

| Structure (SMILES) | EC50 |
| --- | --- |
| Cc1nc(C)c([C@H](OC(C)(C)C)C(=O)O)c(N2CCC(C)(C)CC2)c1-c1ccc(OC(C)Cc2ccc(F)cc2)cc1 (single isomer, unassigned) [Example 21] | 14 nM |
| Cc1nc(C)c([C@H](OC(C)(C)C)C(=O)O)c(N2CCC(C)(C)CC2)c1-c1ccc(Oc2ccccc2)cc1 [Example 1, (S)-2-(tert-butoxy)-2-(4-(4,4-dimethylpiperidin-1-yl)-2,6-dimethyl-5-(4-phenoxyphenyl)pyridin-3-yl)acetic acid] | 37 nM |
| Cc1nc(C)c([C@H](OC(C)(C)C)C(=O)O)c(N2CCC(C)(C)CC2)c1-c1ccc(OCc2ccc(F)cc2)cc1 [Example 2, (S)-2-(tert-butoxy)-2-(4-(4,4-dimethylpiperidin-1-yl)-5-(4-((4-fluorobenzyl)oxy)phenyl)-2,6-dimethylpyridin-3-yl)acetic acid] | 12 nM |
| Cc1nc(C)c([C@H](OC(C)(C)C)C(=O)O)c(N2CCC(C)(C)CC2)c1-c1ccc(OCc2ccccc2)nc1 [Example 3, (S)-2-(6′-(benzyloxy)-4-(4,4-dimethylpiperidin-1-yl)-2,6-dimethyl-[3,3′-bipyridin]-5-yl)-2-(tert-butoxy)acetic acid] | 20 nM |
| Cc1nc(C)c([C@H](OC(C)(C)C)C(=O)O)c(N2CCC(C)(C)CC2)c1-c1ccc(OCc2ccccc2)c(F)c1 [Example 4, (S)-2-(5-(4-(benzyloxy)-3-fluorophenyl)-4-(4,4-dimethylpiperidin-1-yl)-2,6-dimethylpyridin-3-yl)-2-(tert-butoxy)acetic acid] | 12 nM |
| Cc1nc(C)c([C@H](OC(C)(C)C)C(=O)O)c(N2CCC(C)(C)CC2)c1-c1ccc(OCc2ccccc2)cc1 [Example 5, (S)-2-(5-(4-(benzyloxy)phenyl)-4-(4,4-dimethylpiperidin-1-yl)-2,6-dimethylpyridin-3-yl)-2-(tert-butoxy)acetic acid] | 11 nM |
| COc1ccccc1COc1ccc(-c2c(C)nc(C)c([C@H](OC(C)(C)C)C(=O)O)c2N2CCC(C)(C)CC2)cc1 [Example 6, (S)-2-(tert-butoxy)-2-(4-(4,4-dimethylpiperidin-1-yl)-5-(4-((2-methoxybenzyl)oxy)phenyl)-2,6-dimethylpyridin-3-yl)acetic acid] | 20 nM |
| Cc1nc(C)c([C@H](OC(C)(C)C)C(=O)O)c(N2CCC(C)(C)CC2)c1-c1ccc(OCc2cccc(F)c2)cc1 [Example 7, (S)-2-(tert-butoxy)-2-(4-(4,4-dimethylpiperidin-1-yl)-5-(4-((3-fluorobenzyl)oxy)phenyl)-2,6-dimethylpyridin-3-yl)acetic acid] | 9 nM |
| COc1ccc(COc2ccc(-c3c(C)nc(C)c([C@H](OC(C)(C)C)C(=O)O)c3N3CCC(C)(C)CC3)cc2)cc1 [Example 8, (S)-2-(tert-butoxy)-2-(4-(4,4-dimethylpiperidin-1-yl)-5-(4-((4-methoxybenzyl)oxy)phenyl)-2,6-dimethylpyridin-3-yl)acetic acid] | 11 nM |
| Cc1nc(C)c([C@H](OC(C)(C)C)C(=O)O)c(N2CCC(C)(C)CC2)c1-c1ccc(OCc2ccc(Cl)cc2)cc1 [Example 9, (S)-2-(tert-butoxy)-2-(5-(4-((4-chlorobenzyl)oxy)phenyl)-4-(4,4-dimethylpiperidin-1-yl)-2,6-dimethylpyridin-3-yl)acetic acid] | 9 nM |
| CCOc1ccc(-c2c(C)nc(C)c([C@H](OC(C)(C)C)C(=O)O)c2N2CCC(C)(C)CC2)cc1 [Example 10, (S)-2-(tert-butoxy)-2-(4-(4,4-dimethylpiperidin-1-yl)-5-(4-ethoxyphenyl)-2,6-dimethylpyridin-3-yl)acetic acid] | 27 nM |
| Cc1nc(C)c([C@H](OC(C)(C)C)C(=O)O)c(N2CCC(C)(C)CC2)c1-c1ccc(OCCc2ccc(F)cc2)cc1 [Example 11, (S)-2-(tert-butoxy)-2-(4-(4,4-dimethylpiperidin-1-yl)-5-(4-(4-fluorophenethoxy)phenyl)-2,6-dimethylpyridin-3-yl)acetic acid] | 4 nM |
| Cc1cc(CCOc2ccc(-c3c(C)nc(C)c([C@H](OC(C)(C)C)C(=O)O)c3N3CCC(C)(C)CC3)cc2)ccc1F [Example 12, (S)-2-(tert-butoxy)-2-(4-(4,4-dimethylpiperidin-1-yl)-5-(4-(4-fluoro-3-methylphenethoxy)phenyl)-2,6-dimethylpyridin-3-yl)acetic acid] | 5 nM |
| Cc1nc(C)c([C@H](OC(C)(C)C)C(=O)O)c(N2CCC(C)(C)CC2)c1-c1ccc(OCCCc2ccc(F)cc2)cc1 [Example 13, (S)-2-(tert-butoxy)-2-(4-(4,4-dimethylpiperidin-1-yl)-5-(4-(3-(4-fluorophenyl)propoxy)phenyl)-2,6-dimethylpyridin-3-yl)acetic acid] | 12 nM |
| Cc1nc(C)c([C@H](OC(C)(C)C)C(=O)O)c(N2CCC(C)(C)CC2)c1-c1ccc(OCCC(C)(C)C)cc1 [Example 14, (S)-2-(tert-butoxy)-2-(5-(4-(3,3-dimethylbutoxy)phenyl)-4-(4,4-dimethylpiperidin-1-yl)-2,6-dimethylpyridin-3-yl)acetic acid] | 28 nM |
| COc1ccc(CCOc2ccc(-c3c(C)nc(C)c([C@H](OC(C)(C)C)C(=O)O)c3N3CCC(C)(C)CC3)cc2)cc1 [Example 15, (S)-2-(tert-butoxy)-2-(4-(4,4-dimethylpiperidin-1-yl)-5-(4-(4-methoxyphenethoxy)phenyl)-2,6-dimethylpyridin-3-yl)acetic acid] | 4 nM |
| Cc1nc(C)c([C@H](OC(C)(C)C)C(=O)O)c(N2CCC(C)(C)CC2)c1-c1ccc(O)cc1 [Example 16, (S)-2-(tert-Butoxy)-2-(4-(4,4-dimethylpiperidin-1-yl)-5-(4-hydroxyphenyl)-2,6-dimethylpyridin-3-yl)acetic acid] | 172 nM |
| Cc1nc(C)c([C@H](OC(C)(C)C)C(=O)O)c(N2CCC(C)(C)CC2)c1-c1ccc(OCCc2ccc(C(N)=O)cc2)cc1 [Example 17, (S)-2-(tert-Butoxy)-2-(5-(4-(4-carbamoylphenethoxy)phenyl)-4-(4,4-dimethylpiperidin-1-yl)-2,6-dimethylpyridin-3-yl)acetic acid] | 4 nM |
| Cc1nc(C)c([C@H](OC(C)(C)C)C(=O)O)c(N2CCC(C)(C)CC2)c1-c1ccc(OCCc2ccc(C#N)cc2)cc1 [Example 18, (S)-2-(tert-Butoxy)-2-(5-(4-(4-cyanophenethoxy)phenyl)-4-(4,4-dimethylpiperidin-1-yl)-2,6-dimethylpyridin-3-yl)acetic acid] | 2 nM |
| Cc1nc(C)c([C@H](OC(C)(C)C)C(=O)O)c(N2CCC(C)(C)CC2)c1-c1ccc(OCc2ccc(C(N)=O)cc2)cc1 [Example 19, (S)-2-(tert-Butoxy)-2-(5-(4-((4-carbamoylbenzyl)oxy)phenyl)-4-(4,4-dimethylpiperidin-1-yl)-2,6-dimethylpyridin-3-yl)acetic acid] | 12 nM |
| Cc1nc(C)c([C@H](OC(C)(C)C)C(=O)O)c(N2CCC(C)(C)CC2)c1-c1ccc(OCc2ccc(C#N)cc2)cc1 [Example 20, (S)-2-(tert-Butoxy)-2-(5-(4-((4-cyanobenzyl)oxy)phenyl)-4-(4,4-dimethylpiperidin-1-yl)-2,6-dimethylpyridin-3-yl)acetic acid] | 3 nM |

— patent US9193720B2, “Pyridin-3-yl acetic acid derivatives as inhibitors of human immunodeficiency virus replication” (priority 2014, dated 2015)
